Results on 1 molecule are retold here after patent publication US20240299345A1, “GINKGOLIDE B AND ITS DERIVATIVES FOR INHIBITING AND/OR REVERSING AGING” (CHINA MEDICAL UNIVERSITY, priority 2023, published 2024).

For the experiment, the system named is GA muscle nuclei. Description: Single-nucleus RNA sequencing of GA muscle. The experiment is classed as in vivo, mouse. The method, then:
Single-nucleus isolation was performed as previously described 41. GA muscles were isolated from mice immediately following euthanasia. The muscles were minced and homogenized with homogenization buffer, 0.25M sucrose and 1% BSA diluted in Mg^2+-free, Ca^2+-free, RNase-free PBS (#AM9624, Invitrogen, Grand Island, NY, USA). The homogenates were incubated with 2.5% Triton-X100/RNase-free PBS at a 1:6 ratio for five minutes. After being filtered through a 100-um strainer, samples were centrifuged at 3000×g for 10 min at 4° C., resuspended in 2% BSA/RNase-free PBS, and then filtered through a 40-μm strainer again. Nuclei were labeled by DAPI with 0.2 U/μL RNase inhibitor (#N8080119, Thermo Fisher Scientific). Labeled nuclei were sorted by FACS Aria II Cell Sorter with 70 μm nozzle (BD Biosciences, San Jose, CA, USA) into 2% BSA/RNase-free PBS with RNase inhibitor. Isolated nuclei were observed by confocal fluorescent microscope (Leica TCS SP8, Wetzlar, Germany) to confirm integrity. To adjust the optimal concentration of nuclei for the 10X Chromium system, isolated nuclei were counted and diluted or concentrated by centrifugation at 250×g for 5 min at 4° C. Single-nucleus RNA-sequencing libraries were constructed by the Chromium Single Cell 3′ reagent kit v2 (10X Genomics, Pleasanton, CA, USA) per the manufacturer's protocol. Following the library preparation, the libraries were sequenced on the NovaSeq 6000 System (Illumina, San Diego, CA, USA) and the 10x Genomics cellranger count pipeline produced 6072 single-nucleus transcriptomes (2128, 2015 and 1929 transcriptomes for Young+Vehicle, Aged+Vehicle, and Aged+GB groups) with 25453, 27,741, and 34,120 reads per nuclei, and 1018, 923, and 1061 genes per nuclei for Young+Vehicle, Aged+Vehicle, and Aged+GB groups respectively.
The single-cell feature-barcode matrices from 10x Genomics cellranger count pipeline were imported into R version 4.1.3 and processed with Seurat 4.2.0. Next, ambient RNA was corrected by SoupX package43. […] Cell cycle genes were corrected for as described in Seurat's Cell-Cycle Scoring and Regression vignette. […] All remaining single-nuclei of each sample were then processed with dimension reduction and Louvain clustering as per Seurat's standard vignette. A combined Seurat object was also created following Seurat's integration protocol as described in Seurat's scRNA-seq integration using default parameters. Dimension reduction and clustering were also performed on the combined dataset as described above. Clusters were annotated using established cell type markers. […]

SMILES strings stand for the structures.

Turning to `CC1C(=O)OC2C(O)C34C5CC(C(C)(C)C)C36C(OC(=O)C6O)OC4(C(=O)O5)C12O` (stereo not shown) [GB, Ginkgolide B], the “reversal of aging-related changes in nucleus proportion” value (8/14 nuclear types, GA muscle of aged mice) is 57%. Under “GA muscle of aged mice”, the “expression levels of Runx1 in myonucleus and number of aging-elicited Runx1+ Type 2b myonuclei” value is on record as “reduced”. Besides, under “covering all 5 myonucleus subclusters altered by aging”, the “aging-related changes in the numbers and proportion of myonuclei” value was “reversed”. Further, the “number of Ptprc+ immune cells in skeletal muscle” value (particularly M2 and M2-like proliferating macrophages) is reported as “increased”.
